pIC50, pKi: −log10 of the molar value.
What was measured:
Prothrombin = Prothrombin (Homo sapiens, UniProt P00734); experiment: Binding affinity against thrombin
Coagulation factor X [1] = target: T1, Coagulation factor X (Homo sapiens, UniProt P00742); experiment: Binding affinity against serine protease factor Xa (fXa)
Serine protease 1 = Serine protease 1 (Homo sapiens, UniProt P07477); experiment: Binding affinity against trypsin
Coagulation factor X [2] = target: T1, Coagulation factor X; experiment: Binding affinity against serine protease Coagulation factor X
[3] = target: Tissue-type plasminogen activator (Homo sapiens, UniProt P00750); experiment: Binding affinity against tissue plasminogen activator (t-Pa)
Chain of Tissue-type plasminogen activator (P00750 whole entry): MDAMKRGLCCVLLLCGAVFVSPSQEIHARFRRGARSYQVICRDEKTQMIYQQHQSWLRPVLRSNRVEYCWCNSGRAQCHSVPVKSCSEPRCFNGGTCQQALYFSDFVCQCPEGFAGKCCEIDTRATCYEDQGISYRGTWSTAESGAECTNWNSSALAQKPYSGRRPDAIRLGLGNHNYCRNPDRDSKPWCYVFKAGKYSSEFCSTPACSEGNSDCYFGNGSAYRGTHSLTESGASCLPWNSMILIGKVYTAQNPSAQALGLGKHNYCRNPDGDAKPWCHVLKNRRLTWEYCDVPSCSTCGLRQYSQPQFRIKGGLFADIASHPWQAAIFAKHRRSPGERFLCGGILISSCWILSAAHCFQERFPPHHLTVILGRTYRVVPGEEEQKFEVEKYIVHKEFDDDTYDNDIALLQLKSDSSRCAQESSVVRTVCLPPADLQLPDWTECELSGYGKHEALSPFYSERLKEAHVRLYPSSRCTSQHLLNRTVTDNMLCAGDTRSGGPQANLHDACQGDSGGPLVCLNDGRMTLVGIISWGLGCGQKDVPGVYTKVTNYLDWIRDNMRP

[4] = target: Vitamin K-dependent protein C (Homo sapiens, UniProt P04070); experiment: Binding affinity against activated protein C (APC)
Chain of Vitamin K-dependent protein C (P04070 43-197 limits assumed): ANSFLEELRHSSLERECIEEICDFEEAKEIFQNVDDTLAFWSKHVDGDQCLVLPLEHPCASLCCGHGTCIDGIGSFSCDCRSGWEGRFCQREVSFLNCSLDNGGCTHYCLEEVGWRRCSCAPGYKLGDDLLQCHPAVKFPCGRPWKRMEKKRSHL
Chain of Vitamin K-dependent protein C (P04070 212-461 limits assumed): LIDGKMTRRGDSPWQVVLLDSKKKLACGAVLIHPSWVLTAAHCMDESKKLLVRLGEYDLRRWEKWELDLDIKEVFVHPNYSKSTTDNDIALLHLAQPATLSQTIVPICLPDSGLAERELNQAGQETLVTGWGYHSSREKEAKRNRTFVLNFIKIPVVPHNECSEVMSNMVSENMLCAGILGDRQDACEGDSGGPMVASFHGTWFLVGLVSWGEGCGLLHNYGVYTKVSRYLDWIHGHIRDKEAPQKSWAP

Plasminogen = Plasminogen (Homo sapiens, UniProt P00747); experiment: Binding affinity against plasmin
Chain of Plasminogen (P00747 97-580 limits assumed): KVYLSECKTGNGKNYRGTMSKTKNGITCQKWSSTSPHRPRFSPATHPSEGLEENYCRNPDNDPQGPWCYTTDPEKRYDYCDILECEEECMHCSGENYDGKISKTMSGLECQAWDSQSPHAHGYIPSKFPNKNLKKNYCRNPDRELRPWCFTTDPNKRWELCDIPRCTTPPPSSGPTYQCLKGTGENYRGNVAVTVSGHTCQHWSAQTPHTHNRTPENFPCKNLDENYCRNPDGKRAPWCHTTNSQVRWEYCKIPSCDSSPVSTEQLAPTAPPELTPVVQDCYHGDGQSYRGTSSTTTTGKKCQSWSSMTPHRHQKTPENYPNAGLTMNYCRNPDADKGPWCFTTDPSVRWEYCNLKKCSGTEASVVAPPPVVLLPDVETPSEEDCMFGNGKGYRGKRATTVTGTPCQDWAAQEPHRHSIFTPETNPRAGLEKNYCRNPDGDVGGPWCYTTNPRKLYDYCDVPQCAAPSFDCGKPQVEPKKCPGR
Chain of Plasminogen (P00747 581-810 limits assumed): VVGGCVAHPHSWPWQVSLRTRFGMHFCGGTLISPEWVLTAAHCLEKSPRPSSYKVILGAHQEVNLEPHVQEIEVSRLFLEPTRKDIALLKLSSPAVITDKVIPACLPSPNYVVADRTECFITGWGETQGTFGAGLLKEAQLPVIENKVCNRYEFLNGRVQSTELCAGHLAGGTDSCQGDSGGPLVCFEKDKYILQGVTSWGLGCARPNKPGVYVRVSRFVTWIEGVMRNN

[5] = target: Coagulation factor X (Rattus norvegicus) (UniProt Q63207); experiment: Inhibitory activity against factor Xa in rat plasma
Chain of Coagulation factor X (Rattus norvegicus) (Q63207 whole entry, looked up): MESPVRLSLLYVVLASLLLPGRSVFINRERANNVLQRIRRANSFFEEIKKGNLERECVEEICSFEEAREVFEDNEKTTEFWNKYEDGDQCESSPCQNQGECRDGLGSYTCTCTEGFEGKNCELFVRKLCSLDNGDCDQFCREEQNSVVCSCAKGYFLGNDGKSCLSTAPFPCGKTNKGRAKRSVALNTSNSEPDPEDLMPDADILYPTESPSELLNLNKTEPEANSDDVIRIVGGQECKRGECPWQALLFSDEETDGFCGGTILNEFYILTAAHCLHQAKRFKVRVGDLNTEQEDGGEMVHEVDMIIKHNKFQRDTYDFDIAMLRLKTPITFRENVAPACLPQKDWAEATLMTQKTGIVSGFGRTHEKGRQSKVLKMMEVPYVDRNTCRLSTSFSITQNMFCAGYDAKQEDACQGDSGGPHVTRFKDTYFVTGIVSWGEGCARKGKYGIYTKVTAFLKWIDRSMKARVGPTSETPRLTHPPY

T1 sequence (P00742 41-179 limits assumed): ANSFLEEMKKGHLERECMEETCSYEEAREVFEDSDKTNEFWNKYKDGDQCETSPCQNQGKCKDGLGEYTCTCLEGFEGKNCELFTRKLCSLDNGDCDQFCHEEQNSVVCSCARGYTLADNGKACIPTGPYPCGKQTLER
T1 sequence (P00742 235-488 limits assumed): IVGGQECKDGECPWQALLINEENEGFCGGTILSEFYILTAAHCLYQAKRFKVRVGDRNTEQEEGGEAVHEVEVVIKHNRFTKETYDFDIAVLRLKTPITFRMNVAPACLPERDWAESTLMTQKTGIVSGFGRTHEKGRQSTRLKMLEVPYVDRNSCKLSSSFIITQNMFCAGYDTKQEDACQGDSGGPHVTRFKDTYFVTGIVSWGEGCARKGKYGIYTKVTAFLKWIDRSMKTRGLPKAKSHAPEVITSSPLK
Chain of Serine protease 1 (P07477 whole entry): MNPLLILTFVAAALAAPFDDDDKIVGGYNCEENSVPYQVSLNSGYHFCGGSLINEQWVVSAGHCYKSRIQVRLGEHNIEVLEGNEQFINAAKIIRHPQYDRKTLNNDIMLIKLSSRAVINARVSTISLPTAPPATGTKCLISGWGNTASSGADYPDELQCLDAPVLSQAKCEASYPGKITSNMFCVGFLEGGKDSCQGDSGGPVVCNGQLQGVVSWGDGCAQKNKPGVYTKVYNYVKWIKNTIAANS

N=C(N)c1cccc(CN2CC[C@H](NS(=O)(=O)c3cc4c(Cl)nccc4s3)C2=O)c1
pKi (Prothrombin): < 5.40
pKi (Coagulation factor X [1]): 7.41
pKi (Serine protease 1): < 5.54

CCOc1ccc2cc(S(=O)(=O)N[C@H]3CCN(Cc4cccc(C(=N)N)c4)C3=O)ccc2n1
pKi (Prothrombin): < 5.40
pKi (Coagulation factor X [1]): < 5.92
pKi (Serine protease 1): < 5.54

N=C(N)c1cccc(CN2CC[C@H](NS(=O)(=O)c3ccc4ccncc4c3)C2=O)c1
pKi (Prothrombin): < 5.40
pKi (Coagulation factor X [2]): 6.29
pKi (Serine protease 1): < 5.54

N=C(N)c1cccc(CN2CC[C@H](NS(=O)(=O)c3cc4cccnc4s3)C2=O)c1
pKi (Prothrombin): < 5.40
pKi (Coagulation factor X [1]): 7.06
pKi (Serine protease 1): 5.54

N=C(N)c1ccc(O)c(CN2CC[C@H](NS(=O)(=O)c3cc4c(Cl)nccc4s3)C2=O)c1
pKi (Prothrombin): 5.40
pKi (Coagulation factor X [1]): 8.70
pKi [3]: 5.06
pKi [4]: 5.10
pKi (Serine protease 1): < 5.54
pKi (Plasminogen): 5.35

N=C(N)c1ccc(O)c(CN2CC[C@H](NS(=O)(=O)c3cc4cnccc4s3)C2=O)c1
pKi (Prothrombin): 5.59
pKi (Coagulation factor X [1]): 8.52
pKi [3]: 5.06
pKi [4]: < 4.74
pKi (Serine protease 1): < 5.54
pKi (Plasminogen): < 5.14

N=C(N)c1cccc(CN2CC[C@H](NS(=O)(=O)c3ccc4cc(Cl)c(Cl)cc4c3)C2=O)c1
pKi (Coagulation factor X [2]): ~7.12

N=C(N)c1ccc(O)c(CN2CC[C@H](NS(=O)(=O)c3cc4ncccc4s3)C2=O)c1
pKi (Prothrombin): 5.40
pKi (Coagulation factor X [1]): 9.15
pKi [3]: 6.44
pKi [4]: 5.28
pKi (Serine protease 1): 6.00
pKi (Plasminogen): 5.64

N=C(N)c1cccc(CN2CC[C@H](NS(=O)(=O)c3cc4ccc(Cl)nc4s3)C2=O)c1
pKi (Prothrombin): < 5.40
pKi (Coagulation factor X [2]): 6.92
pKi (Serine protease 1): < 5.54

Cc1c(S(=O)(=O)N[C@H]2CCN(Cc3cccc(C(=N)N)c3)C2=O)sc2ccc(Cl)cc12
pKi (Coagulation factor X [2]): 7.44

N=C(N)c1cccc(CN2CC[C@H](NS(=O)(=O)c3ccc4c(N)nccc4c3)C2=O)c1
pKi (Prothrombin): < 5.40
pKi (Coagulation factor X [2]): 7.05
pKi (Serine protease 1): < 5.54

N=C(N)c1ccc(O)c(CN2CC[C@H](NS(=O)(=O)c3cc4nc(Cl)ccc4s3)C2=O)c1
pKi (Prothrombin): 6.04
pKi (Coagulation factor X [1]): 8.82
pKi [3]: 5.57
pKi [4]: 4.96
pKi (Serine protease 1): 5.80
pKi (Plasminogen): 5.44

N=C(N)c1ccc(N)c(CN2CC[C@H](NS(=O)(=O)c3cc4nc(Cl)ccc4s3)C2=O)c1
pKi (Prothrombin): 5.96
pKi (Coagulation factor X [1]): 8.52
pKi [3]: < 5.06
pKi [4]: 5.38
pKi (Serine protease 1): 5.74
pKi (Plasminogen): 5.82

N=C(N)c1cccc(CN2CC[C@H](NS(=O)(=O)c3ccc4nc(Cl)ccc4c3)C2=O)c1
pKi (Prothrombin): < 5.40
pKi (Coagulation factor X [1]): 6.96
pKi (Serine protease 1): < 5.54

N=C(N)c1cccc(CN2CC[C@H](NS(=O)(=O)c3cc4ncccc4s3)C2=O)c1
pKi (Prothrombin): < 5.40
pKi (Coagulation factor X [1]): 7.59
pKi [3]: < 5.06
pKi [4]: 4.92
pKi (Serine protease 1): < 5.54
pKi (Plasminogen): < 5.14

N=C(N)c1cccc(CN2CC[C@H](NS(=O)(=O)c3cc4nc(Cl)ccc4s3)C2=O)c1
pKi (Prothrombin): 5.51
pKi (Coagulation factor X [1]): 7.51
pKi [3]: < 5.06
pKi [4]: < 4.74
pKi (Serine protease 1): < 5.54
pKi (Plasminogen): 5.24

N=C(N)c1cccc(CN2CC[C@H](NS(=O)(=O)c3ccc4cnccc4c3)C2=O)c1
pKi (Prothrombin): < 5.40
pKi (Coagulation factor X [2]): 6.42
pKi (Serine protease 1): < 5.54

N=C(N)c1cccc(CN2CC[C@H](NS(=O)(=O)c3ccc4ncccc4c3)C2=O)c1
pKi (Prothrombin): < 5.40
pKi (Coagulation factor X [1]): 6.70
pKi (Serine protease 1): < 5.54

N=C(N)c1ccc(O)c(CN2CC[C@H](NS(=O)(=O)c3cc4ccncc4s3)C2=O)c1
pKi (Prothrombin): 5.70
pIC50 [5]: 7.96
pKi [3]: < 5.06
pKi (Coagulation factor X [2]): 8.70
pKi [4]: 4.74
pKi (Serine protease 1): < 5.54
pKi (Plasminogen): 5.21

N=C(N)c1cccc(CN2CC[C@H](NS(=O)(=O)c3ccc4nc(N)ccc4c3)C2=O)c1
pKi (Prothrombin): < 5.40
pKi (Coagulation factor X [1]): 6.80
pKi (Serine protease 1): < 5.54

N=C(N)c1cccc(CN2CC[C@H](NS(=O)(=O)c3ccc4ccc(N)nc4c3)C2=O)c1
pKi (Prothrombin): < 5.40
pKi (Coagulation factor X [2]): 6.62
pKi (Serine protease 1): < 5.54

N=C(N)c1ccc(O)c(CN2CC[C@H](NS(=O)(=O)c3cc4ccnc(Cl)c4s3)C2=O)c1
pKi (Prothrombin): 5.59
pKi (Coagulation factor X [1]): 8.30
pKi [3]: 5.12
pKi [4]: 5.26
pKi (Serine protease 1): < 5.54
pKi (Plasminogen): 5.14

N=C(N)c1cccc(CN2CC[C@H](NS(=O)(=O)c3ccc4ccc(Cl)nc4c3)C2=O)c1
pKi (Prothrombin): < 5.40
pKi (Coagulation factor X [2]): 6.14
pKi (Serine protease 1): < 5.54

COc1ccc2ccc(S(=O)(=O)N[C@H]3CCN(Cc4cccc(C(=N)N)c4)C3=O)cc2n1
pKi (Prothrombin): < 5.40
pKi (Coagulation factor X [2]): 6.32
pKi (Serine protease 1): < 5.54

N=C(N)c1cccc(CN2CC[C@H](NS(=O)(=O)c3ccc4ccnc(N)c4c3)C2=O)c1
pKi (Prothrombin): < 5.40
pKi (Coagulation factor X [2]): 6.31
pKi (Serine protease 1): < 5.54

N=C(N)c1cccc(CN2CC[C@H](NS(=O)(=O)c3ccc4cccnc4c3)C2=O)c1
pKi (Prothrombin): < 5.40
pKi (Coagulation factor X [2]): 6.38
pKi (Serine protease 1): < 5.54

COc1ccc2ccc(S(=O)(=O)N[C@H]3CCN(Cc4cc(C(=N)N)ccc4O)C3=O)cc2c1
pKi [3]: 5.97
pKi [4]: 5.71
pKi (Serine protease 1): 6.52
pKi (Plasminogen): 5.63

COc1ccc2sc(S(=O)(=O)N[C@H]3CCN(Cc4cc(C(=N)N)ccc4N)C3=O)cc2n1
pKi (Prothrombin): 6.68
pKi (Coagulation factor X [1]): 8.30
pKi [3]: < 5.06
pKi [4]: 5.02
pKi (Serine protease 1): 6.07
pKi (Plasminogen): < 5.14

Reference: ChEMBL document CHEMBL1131988, “Synthesis, SAR and in vivo activity of novel thienopyridine sulfonamide pyrrolidinones as factor Xa inhibitors” (Bioorg Med Chem Lett, 1999)
